Results: patent publication US8795734B2, “Hydrophobic nanotubes and nanoparticles as transporters for the delivery of drugs into cells” (The Board of Trustees of the Leland Stanford Junior …, priority 2005, dated 2014)

Key:
4188 cells = test: Cell density, cell death and proliferation of lymphoma cells after c-myc siRNA delivery; type: cell-based, mice; settings: approximately 24 h treatment, light microscopy
Protocol: These conjugates were used to treat T-cell lymphoma cells, 4188 cells, which were derived from mice overexpressing human myc. Control experiments were also performed where the 4188 cells were exposed to a mixture of SWNT and siRNAmyc (no covalent linkage), to lipofectamine-siRNAmyc complex or to the antibiotic doxicycline (DOX). The 4188 cells used in this experiment had been previously engineered to be tet-regulatable such that the myc gene can be turned off by treatment with DOX.
The 4188 cells are non-adherent cells, typically cultured in RPMI 1640 medium supplemented with fetal bovine serum, penicillin/streptomycin and betamercaptoethanol. The cells were engineered to have tet-regulatable MYC, which can be regulated by the antibiotic doxicycline (DOX). 4188 cells are further described at Jain, M. et al. Sustained loss of a neoplastic phenotype by brief inactivation of MYC. Science 297, 102-104 (2002). […]
The cell proliferation was determined by using the CellTiterA96 assay (Promega). […]
Cell death was monitored in the cells by cell cytometry. […]

myc = test: Western blot of myc after c-myc siRNA delivery in 4188 cells; type: cell-based
Protocol: Typical incubations were carried out by incubating 4188 cells with the NT conjugates for periods ranging from 12-14 h at 37° C. and 5% CO2 atmosphere. In addition to our positive incubation with our disulfide containing conjugate, SWNT-SS-siRNAmyc (typical [NT} ≈20 nM and [siRNA] ≈500 nM in incubation), control incubations were also carried out with DOX at a concentration 2 ng/mL, commercially available transfecting agent lipofectamine-myc complex and finally with a mixture of SWNT suspension and myc siRNA solution.
The proliferation of the cells was also examined by the use of a colorimetric MTS-based assay. […] In order to verify that the decrease in cell viability and proliferation was in fact a result of the knockdown of myc in the lymphoma cells, western blots were performed on the respective cellysates. The myc band was absent for the SWNT-SS-siRNAmyc and DOX treated cell.

With `C[C@H]1c2cccc(O)c2C(O)=C2C(=O)[C@]3(O)C(O)=C(C(N)=O)C(=O)[C@@H](N(C)C)[C@@H]3[C@@H](O)[C@@H]21` [DOX, doxicycline] the cell density (4188 cells) was “some reduction in the cell density” and the “myc band in western blot” value (myc) was “absent”.
